Laboratory results as given in patent US8003628B2, “Methods of inhibiting osteoclast activity” (The Trustees of The University of Pennsylvania, priority 1999, dated 2011).

Key:
osteoclast formation = target: osteoclast formation
Method: Cytochemical staining for TRAP is widely used for identifying osteoclasts in vivo and in vitro. Naphthol AS-MX phosphate 5 mg. Sigma, St. Louis, Mo.) is resolved in 0.5 ml of N,N-dimethylformamide (Wako). Thirty milligrams of fast red violet LB salt (Sigma) and 50 ml of 0.1 M sodium acetate buffer (pH 5.0) containing 50 mM sodium tartratet are added to the mixture (the TRAP-staining solution). Cells are fixed with 3.7% (v/v) formaldehyde in Ca^2−- and Mg^2+-free phosphate-buffered saline [PBS(−)] for 10 min. fixed again with ethanol-acetone (50:50, v:v) for 1 min. and incubated with the TRAP-staining solution for 10 min. at room temperature. TRAP-positive osteoclasts appear as red cells. The incubation period longer than 10 min. should be avoided since cells other than osteoclasts become weakly positive with time. After staining, cells are washed with distilled water, and TRAP-positive multinucleated cells having three or more nuclei are counted as osteoclasts under a microscope.

L929 lymphocytes = details: Takasaki et al. 1997; cited from earlier work
[1] = system: TRANCE-induced marrow cultures; assay: TRANCE-induced marrow cultures; assay type: cell-based; details: reciprocal dose-dependence of WP9QY and TRANCE
Method: This peptide (5-500 μM) was tested for its effect on osteoclast formation using the co-culture system induced by 1,250H2D3 and PGE2. […] There was a reciprocal dose-dependence of WP9QY and TRANCE. Thus, WP9QY is capable of interfering not only with TNF/TNF receptor (1) interaction but also with RANK Ligand/RANK interaction, thereby decreasing the osteoclastogenic potential of this cytokine.

[2] = target: TNF-related activation-induced cytokine (TRANCE); assay: cell-based or functional assay

| osteoclast formation in the co-culture system induced by 1,25(OH)2D3 and PGE2 (IC50) [2] [µM] | Compound | IC50 osteoclastogenesis relative to IC50 TNF/TNF receptor (1) interaction (osteoclast formation; 250 μM vs 5 μM) [fold] | effect on osteoclastogenesis (osteoclast formation; co-culture system, peptide 5-500 μM) | IC50 (osteoclast formation; read-out: IC50, inhibition of osteoclastogenesis, co-culture system induced by 1,250H2D3 and PGE2, peptide 5-500 μM) [µM] | antagonism of effects of TNF-binding to TNF-α receptor (1) (L929 lymphocytes) | effect on TRANCE-induced marrow cultures [1] |
| --- | --- | --- | --- | --- | --- | --- |
|  | CC(C)C[C@@H]1NC(=O)[C@H](Cc2ccc(O)cc2)NC(=O)[C@H](CCC(N)=O)NC(=O)[C@H](CO)NC(=O)[C@H](Cc2c[nH]c3ccccc23)NC(=O)[C@@H](NC(=O)[C@@H](N)Cc2ccc(O)cc2)CSSC[C@@H](C(=O)N[C@@H](Cc2ccc(O)cc2)C(=O)O)NC1=O [WP9QY] | 50 | dose- and time-dependently inhibited | 250 | efficiently antagonized | inhibits TRANCE-induced marrow cultures |
| 250 | WP9QY (peptide) |  |  |  |  |  |
